Reference: patent US20250346582A1, “SPLEEN TYROSINE KINASE INHIBITORS AND METHODS OF USE THEREOF” (THE BOARD OF TRUSTEES OF THE UNIVERSITY OF ILLINOIS, priority 2022, published 2025)

Columns and labels:
Syk [1] = biological target: T1, Syk (Homo sapiens, UniProt P43405); test: Streptavidin pull down assay with WC36B in MV4-11 cells; format: cell-based; conditions: MV4-11 cells, 5 μM for 24 h, immunoblotting
T1 construct: host or cells: MV4-11 AML cells (naive and entospletinib-resistant)
Experimental: (§1) Streptavidin-coated beads (Dynabeads™ M280 streptavidin beads; ThermoFisher) were washed twice with 1 ml of PBST (PBS+0.1% Tween 20) and resuspended in 100 μl of PBST. WC36B (or biotin) (10 mM) was added to 100 μl of the bead suspension and the mixture was incubated at room temperature for 15 min with gentle shaking. The mixture was then vortexed for 5 s and the tube was placed on a magnet for 1 min. After discarding the supernatant, the beads were resuspended in the same volume of the washing buffer. Washing is repeated three times to remove excess WC36B. WC36B-coated beads were then incubated with the cell lysate (MV-4-11) for 30 min at room temperature with gentle shaking. Protein-coated beads were separated with a magnet for 2-3 min and washed 4-5 times with PBS containing 0.1% BSA. The protein was then removed from the beads by boiling the beads in the SDS-polyacrylamide gel electrophoresis (PAGE) application buffer. Samples were concentrated for the mass spectrometry analysis and the western blot assay.

Syk [2] = biological target: T1, Syk; test: Mass spectrometry proteomics of WC36B-binding cellular proteins; format: cell-based; conditions: biotin as negative control
Experimental: as §1
MS analysis was performed to identify proteins captured by WC36B and biotin. […]

capture of Syk by streptavidin pulldown (Syk [1]): targets Syk in MV4-11 cells
SMILES: [N-]=[N+]=C(C(=O)NCCNC(=O)CCCC[C@H]1SC[C@H]2NC(=O)N[C@H]21)C(Nc1ncccn1)c1c[nH]c2ccccc12 (stereo partly drawn) [WC36B, N-(2-(2-diazo-3-(1H-indol-3-yl)-3-(pyrimidin-2-ylamino)propanamido)ethyl)-5-((3aR,4R,6aS)-2-oxohexahydro-1H-thieno[3,4d]imidazol-4-yl)pentanamide]
proteins captured (proteomics) (Syk [2]): Syk is the single major protein that is captured by the WC36 pharmacophore
